Assay results: patent publication US8216975B2, “Method of labelling soya varieties” (priority 2004, dated 2012)

Columns and labels:
[1] = tested on: soya varieties S40R-9 and S24-K4; assay: Field carry-over test: phytotoxicity to soya grown as subsequent crop to maize treated with HPPD herbicide; assay type: in vivo, Glycine max
Excerpt: Biological Test Method for the Selection of Suitable Sensitive Reference Soybean Varieties in the Field:
• a) Compound No. 2.13 according to Table 2 below was applied pre- or post-emergence to maize in three repetitions in a field in the vicinity of Ames, Iowa, USA, under practical conditions at a suitable time (pre-emergence April-May; post-emergence May-June) in a field trial using concentrations of 100, 200 and 400 g a.i./ha. Application of fertilizer, pest control and other cultivation measures were carried out in accordance with the standards customary in agriculture. Because not all weeds were controlled by the test herbicides, the test plots were kept weed-free over the entire vegetation period by the application of non-soil-active herbicides. • b) The plots were harvested and labeled in the autumn. At the customary time in […] (April/May) of the following year, the soybeans to be tested were sown in the labeled plots from the previous year and the condition of the plants on reaching the different physiological growth stages was evaluated (see Table 1). • c) The evaluation was carried out in % general phytotoxicity, which records any effects such as growth inhibition, bleaching, chlorosis, scorching or thinning. 0-4% phytotoxicity is acceptable, >4% is not acceptable under practical field conditions.
Tables A and B: Phytotoxicity of the soya varieties S40R-9 and S24-K4 as a subsequent crop to maize in which weed control has been carried out using the herbicide of formula 2.13. The herbicide was applied in an amount of 400 g/ha; in Table B an oil adjuvant (Agridex) was additionally used in an amount of 1.25% by volume.

[2] = tested on: soybean varieties; assay: Greenhouse pot test: soybean varieties sown in soil treated with HPPD inhibitor, ED20 and factor versus reference variety; assay type: in vivo, Glycine max
Experimental: Test Method for the Selection of Suitable Soybean Varieties: Categorisation of the Soybean Varieties According to Their Sensitivity to HPPD Herbicide Residues and Comparison with Sensitive and Non-Sensitive Soybean Varieties:
• 1. A non-sterilised soil is treated with the HPPD inhibitor being tested. The HPPD inhibitor being tested is applied in concentrations of 0, 20, 40 and 80 ppb and incorporated homogeneously into the soil. The soil so treated is then introduced into pots (2⅝ inch×2⅝ inch×3½ inch) and lightly firmed. • 2. Sowing: The soybean varieties being tested are sown in the pots treated as described above as follows: 3 seed grains are used per pot, the seeds being pressed lightly into the soil (under the surface of the soil) and covered over with soil. In each test, varieties having known sensitivity are also tested as reference. These are the soybean varieties NK S40-R9 and Pioneer P94B01. Shortly after germination, the plants are thinned out to two plants per pot. The plants receive an optimum supply of water and nutrients and are kept in a greenhouse at 20-24° C., with 16 hours exposure to light per day. • 3. 3-4 Weeks after sowing, the condition of the plants is evaluated visually. Symptoms of damage to the plants, such as chlorosis, bleaching and growth inhibition (‘stunting’), are assessed and compared with an untreated soya plant of the same variety. • 4. Calculation: The repetitions are combined and a linear regression analysis is carried out with non-transformed data. ED20 values (=effective dose at which damage is 20% in comparison with the untreated control) are calculated from the regression curve for each variety. The soybeans are grouped according to whether they are “sensitive” or “tolerant” by comparing the ED20 values of the test varieties with those of the standard varieties, that is to say by determining a factor with respect to the reference variety.

## COCCOCc1nc(C(F)(F)F)ccc1C(=O)C1=C(O)C2CCC(C2)C1=O (stereo not drawn) [Compound No. 2.13]
[1]; Table A, soya variety NK S40-R9, 400 g/ha on maize, 29 days after sowing, 404 days after herbicide application, BBCH12/BBCH13
  % Phytotoxicity (mean value): 6.67%
[1]; Table A, soya variety NK S40-R9, 400 g/ha on maize, 42 days after sowing, 417 days after herbicide application, BBCH14/BBCH14
  % Phytotoxicity (mean value): 13%
[1]; Table A, soya variety NK S40-R9, 400 g/ha on maize, 56 days after sowing, 431 days after herbicide application, BBCH16/BBCH17
  % Phytotoxicity (mean value): 14.33%
[1]; Table A, soya variety NK-S24-K4, 400 g/ha on maize, 29 days after sowing, 404 days after herbicide application, BBCH12/BBCH13
  % Phytotoxicity (mean value): 0%
[1]; Table A, soya variety NK-S24-K4, 400 g/ha on maize, 42 days after sowing, 417 days after herbicide application, BBCH14/BBCH14
  % Phytotoxicity (mean value): 0%
[1]; Table A, soya variety NK-S24-K4, 400 g/ha on maize, 56 days after sowing, 431 days after herbicide application, BBCH16/BBCH17
  % Phytotoxicity (mean value): 0%
[1]; Table B, soya variety NK S40-R9, 400 g/ha on maize plus oil adjuvant (Agridex) 1.25% by volume, 29 days after sowing, 404 days after herbicide application, BBCH12/BBCH13
  % Phytotoxicity (mean value): 36.67%
[1]; Table B, soya variety NK S40-R9, 400 g/ha on maize plus oil adjuvant (Agridex) 1.25% by volume, 42 days after sowing, 417 days after herbicide application, BBCH14/BBCH14
  % Phytotoxicity (mean value): 49.33%
[1]; Table B, soya variety NK S40-R9, 400 g/ha on maize plus oil adjuvant (Agridex) 1.25% by volume, 56 days after sowing, 431 days after herbicide application, BBCH16/BBCH17
  % Phytotoxicity (mean value): 56.67%
[1]; Table B, soya variety NK-S24-K4, 400 g/ha on maize plus oil adjuvant (Agridex) 1.25% by volume, 29 days after sowing, 404 days after herbicide application, BBCH12/BBCH13
  % Phytotoxicity (mean value): 5.67%
[1]; Table B, soya variety NK-S24-K4, 400 g/ha on maize plus oil adjuvant (Agridex) 1.25% by volume, 42 days after sowing, 417 days after herbicide application, BBCH14/BBCH14
  % Phytotoxicity (mean value): 3.33%
[1]; Table B, soya variety NK-S24-K4, 400 g/ha on maize plus oil adjuvant (Agridex) 1.25% by volume, 56 days after sowing, 431 days after herbicide application, BBCH16/BBCH17
  % Phytotoxicity (mean value): 1.67%
[2]; soya variety AGI 7370 RR
  Factor with respect to reference variety NK S40-R9, based on ED20 values: 1.0
[2]; soya variety Agripro 2502 RR
  Factor with respect to reference variety NK S40-R9, based on ED20 values: 5.3
[2]; soya variety Agripro 2547 RR/N
  Factor with respect to reference variety NK S40-R9, based on ED20 values: 4.7
[2]; soya variety Agway APK 190
  Factor with respect to reference variety NK S40-R9, based on ED20 values: 12.2
[2]; soya variety Agway APK256 RR
  Factor with respect to reference variety NK S40-R9, based on ED20 values: 5.6
[2]; soya variety Asgrow 1602
  Factor with respect to reference variety NK S40-R9, based on ED20 values: 5.4
[2]; soya variety Asgrow 2105
  Factor with respect to reference variety NK S40-R9, based on ED20 values: 6.5
[2]; soya variety Asgrow 2705
  Factor with respect to reference variety NK S40-R9, based on ED20 values: 5.0
[2]; soya variety Asgrow AG1401 RR
  Factor with respect to reference variety NK S40-R9, based on ED20 values: 4.5
[2]; soya variety Asgrow AG2302
  Factor with respect to reference variety NK S40-R9, based on ED20 values: 4.7
[2]; soya variety Asgrow AG3902
  Factor with respect to reference variety NK S40-R9, based on ED20 values: 4.7
[2]; soya variety Asgrow AG4403
  Factor with respect to reference variety NK S40-R9, based on ED20 values: 8.5
[2]; soya variety Beck's 336NRR
  Factor with respect to reference variety NK S40-R9, based on ED20 values: 4.5
[2]; soya variety Beck's 366NRR
  Factor with respect to reference variety NK S40-R9, based on ED20 values: 4.9
[2]; soya variety D King 4868RR
  Factor with respect to reference variety NK S40-R9, based on ED20 values: 4.4
[2]; soya variety Dekalb DK32-51
  Factor with respect to reference variety NK S40-R9, based on ED20 values: 5.3
[2]; soya variety Dekalb DKB23-51
  Factor with respect to reference variety NK S40-R9, based on ED20 values: 5.8
[2]; soya variety Dekalb DKB36-51
  Factor with respect to reference variety NK S40-R9, based on ED20 values: 4.2
[2]; soya variety Garst 2677 RR
  Factor with respect to reference variety NK S40-R9, based on ED20 values: 4.1
[2]; soya variety Gld H H3505RR
  Factor with respect to reference variety NK S40-R9, based on ED20 values: 5.8
[2]; soya variety Kruger 279 RR
  Factor with respect to reference variety NK S40-R9, based on ED20 values: 3.4
[2]; soya variety Kruger 323 RR
  Factor with respect to reference variety NK S40-R9, based on ED20 values: 4.3
[2]; soya variety MFA RT 3660N
  Factor with respect to reference variety NK S40-R9, based on ED20 values: 4.3
[2]; soya variety Mustang M-222RR
  Factor with respect to reference variety NK S40-R9, based on ED20 values: 0.8
[2]; soya variety NK S24-K4
  Factor with respect to reference variety NK S40-R9, based on ED20 values: 3.6
[2]; soya variety NK S35-A6
  Factor with respect to reference variety NK S40-R9, based on ED20 values: 5.3
[2]; soya variety NK S40-R9 (reference variety)
  Factor with respect to reference variety NK S40-R9, based on ED20 values: 1.0
[2]; soya variety NK S46-W8
  Factor with respect to reference variety NK S40-R9, based on ED20 values: 0.5
[2]; soya variety Pioneer 90B51
  Factor with respect to reference variety NK S40-R9, based on ED20 values: 1.1
[2]; soya variety Pioneer 91B33
  Factor with respect to reference variety NK S40-R9, based on ED20 values: 4.9
[2]; soya variety Pioneer 91B91
  Factor with respect to reference variety NK S40-R9, based on ED20 values: 3.0
[2]; soya variety Pioneer 93B67
  Factor with respect to reference variety NK S40-R9, based on ED20 values: 1.1
[2]; soya variety Pioneer 94B01
  Factor with respect to reference variety NK S40-R9, based on ED20 values: 0.8
[2]; soya variety Pioneer 94B54
  Factor with respect to reference variety NK S40-R9, based on ED20 values: 1.6
[2]; soya variety Pioneer 9492
  Factor with respect to reference variety NK S40-R9, based on ED20 values: 1.0
[2]; soya variety Pioneer P92B38
  Factor with respect to reference variety NK S40-R9, based on ED20 values: 4.3
[2]; soya variety S21-H7 STS
  Factor with respect to reference variety NK S40-R9, based on ED20 values: 5.03
[2]; soya variety S34-A9 STS
  Factor with respect to reference variety NK S40-R9, based on ED20 values: 8.0
[2]; soya variety S. Grow SG948RR
  Factor with respect to reference variety NK S40-R9, based on ED20 values: 1.2

## CS(=O)(=O)c1ccc(C(=O)C2C(=O)CCCC2=O)c([N+](=O)[O-])c1 [2.04, reference compound]
[2]; Table D, soya variety S21-H7 STS
  Factor with respect to reference variety NK S40-R9, based on ED20 values: 3.45
[2]; Table D, soya variety S34-A9 STS
  Factor with respect to reference variety NK S40-R9, based on ED20 values: 4.56
[2]; Table D, soya variety S40-R9 (reference variety)
  Factor with respect to reference variety NK S40-R9, based on ED20 values: 1.0
